Measurements as given in US20120328526A1, “Modulation of Nad+ Activity in Neuropathophysiological Conditions and Uses Thereof” (University of Maryland, Baltimore, priority 2011, published 2012).
Entries after “also recorded” stand apart in the source; their conditions may differ.

How the values were obtained:
CD38 = molecular target: T1, CD38 (Mus musculus, UniProt P56528); experiment: 1-etheno-NAD hydrolysis by isolated brain mitochondria; assay type: biochemical; details: NMN 1 mM
T1 construct: Addition of isolated brain mitochondria into medium containing 1-etheno-NAD (eNAD) results in generation of fluorescent product; from tissue; host or cells: isolated brain mitochondria
T1 sequence (P56528 1-304): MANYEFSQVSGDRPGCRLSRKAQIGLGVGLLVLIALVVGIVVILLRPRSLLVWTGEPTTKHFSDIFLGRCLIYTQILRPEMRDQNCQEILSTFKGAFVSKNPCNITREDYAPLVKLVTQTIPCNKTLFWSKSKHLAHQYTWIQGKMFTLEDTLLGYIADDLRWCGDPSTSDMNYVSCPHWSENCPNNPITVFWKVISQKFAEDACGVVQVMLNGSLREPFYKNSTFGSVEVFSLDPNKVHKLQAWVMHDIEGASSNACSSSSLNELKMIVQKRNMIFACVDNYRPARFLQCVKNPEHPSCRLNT
Protocol: Addition of isolated brain mitochondria into medium containing 1-etheno-NAD (eNAD) results in generation of fluorescent product. This NAD catabolism is inhibited by nicotinamide mononucleotide (1 mM). […] In brain tissue of sham-operated animals the CD38 expression is very low. […] This increase is observed particularly in non-neuronal cells that resemble post-ischemic microglia.

[1] = molecular target: T2, CD38 NAD^+ glycohydrolase (Mus musculus, UniProt P56528); experiment: NAD+ glycohydrolase activity (1-etheno-NAD hydrolysis) in brain region homogenates; assay type: biochemical; details: NMN 1 mM; post-ischemic brain subregion supernatant
T2 construct: The individual brain regions were homogenized and centrifuged at low speed to sediment the unbroken cells and the nuclear fraction; from tissue; host or cells: mouse (C57BL/6) brain regions (cortex, striatum, hippocampal CA1, CA3-DG), low-speed supernatant of homogenate
T2 sequence (P56528 1-304): T1 sequence (P56528 1-304)
Protocol: FIGS. 3A-3B show the effect of forebrain ischemia and nicotinamide mononucleotide administration on tissue NAD(H) levels. Mice were subjected to 10 min transient forebrain ischemia and allowed to recover for 24 h. After decapitation their brains were removed, the designated regions dissected and frozen in liquid nitrogen. One group of animals received nicotinamide mononucleotide at 1 hour of recovery. The NAD content was determined following perchloric acid extraction and utilized a coupled fluorometric cycling enzymatic assay (FIG. 3A). There is significant loss of NAD^+ in striatum, CA1, and DG regions. *p<0.05. […] Black: sham; white: ischemia; gray: NMN treatment. FIG. 3B: Effect of ischemia on CD38 activity. Brains of sham operated animals or animals subjected to 10 min of forebrain ischemia and 24 h of recovery were used for dissection of designated brain regions and homogenized. The CD38 enzyme activity was determined using 1-etheno-NAD that, when hydrolyzed by CD38, generates a fluorescent product. The rate of fluorescence increase corresponds to the CD38 enzyme activity. […]
Since nicotinamide mononucleotide is inhibiting the CD38 NAD^+ glycohydrolase activity, the activity of CD38 in post-ischemic tissue was assessed. The NAD^+ glycohydrolase activity was measured by monitoring the enhancement in fluorescence emission caused by the hydrolysis of 1-etheno-NAD (eNAD) (9). […]

Structure (SMILES): NC(=O)c1ccc[n+]([C@@H]2O[C@H](COP(=O)([O-])O)[C@@H](O)[C@H]2O)c1 [nicotinamide mononucleotide]
- NAD catabolism (eNAD fluorescent product) by isolated brain mitochondria (CD38): inhibited
- eNAD hydrolysis (NAD+ glycohydrolase activity) in brain tissue homogenate [1]: completely inhibited; also recorded: prevents tissue NAD^+ degradation
